{"source": "paper PMC9613624", "about": "(Journal of medicinal chemistry, 2022)", "key": {"AKT [1]": {"system": "AKT", "test": "Western blotting of T-AKT in Colo205 cells", "assay_type": "cell-based", "details": "Colo205 cells (BRAF mutant), 1 μM, 24 h"}, "P-PRAS40": {"system": "P-PRAS40", "test": "Western blotting of P-PRAS40 in SW620 cells", "details": "1 μM, 18 h, Figure S4"}, "AKT2 [2]": {"biological_target": "T1, AKT2 (Homo sapiens, UniProt P31751)", "T1 sequence (P31751 whole entry)": "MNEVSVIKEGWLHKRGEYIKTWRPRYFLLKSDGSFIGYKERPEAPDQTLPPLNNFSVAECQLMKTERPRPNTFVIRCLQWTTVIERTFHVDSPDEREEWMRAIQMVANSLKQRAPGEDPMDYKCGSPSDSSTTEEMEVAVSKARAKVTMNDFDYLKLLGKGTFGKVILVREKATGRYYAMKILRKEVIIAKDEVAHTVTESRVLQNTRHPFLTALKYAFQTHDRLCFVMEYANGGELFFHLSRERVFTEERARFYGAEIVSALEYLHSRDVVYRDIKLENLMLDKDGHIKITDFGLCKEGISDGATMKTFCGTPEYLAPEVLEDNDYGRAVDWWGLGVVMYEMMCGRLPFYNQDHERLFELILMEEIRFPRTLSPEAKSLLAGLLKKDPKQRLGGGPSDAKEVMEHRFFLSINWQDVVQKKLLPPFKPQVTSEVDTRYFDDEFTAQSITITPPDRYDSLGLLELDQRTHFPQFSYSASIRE", "test": "Global TMT MS-based quantitative proteomic study in SW620 cells", "assay_type": "cell-based", "details": "1 μM, 18 h, 62 compared to 63"}, "[3]": {"test": "Mouse pharmacokinetic study", "assay_type": "in vivo, male Swiss Albino mice", "details": "mice, single IP dose 75 mg/kg"}, "SW620 cells [4]": {"system": "SW620 cells", "test": "Colony formation assay in SW620 cells", "assay_type": "cell-based", "details": "2 weeks, crystal violet"}, "AKT [5]": {"system": "AKT", "test": "Western blotting of T-AKT in Mia PaCa-2 cells", "assay_type": "cell-based", "details": "Mia PaCa-2 cells (KRAS mutant), Figure S2A"}, "SW620 cells [6]": {"system": "SW620 cells", "test": "Cell death monitoring with DRAQ7 in SW620 cells", "assay_type": "cell-based", "details": "5 μM, DRAQ7, 0-72 h"}, "AKT [7]": {"system": "AKT", "test": "Western blotting of T-AKT in HT-29 cells", "assay_type": "cell-based", "details": "HT-29 cells (BRAF mutant), 1 μM, 24 h"}, "AKT1 [8]": {"biological_target": "T2, AKT1 (Homo sapiens, UniProt P31749)", "T2 sequence (P31749 whole entry, canonical isoform)": "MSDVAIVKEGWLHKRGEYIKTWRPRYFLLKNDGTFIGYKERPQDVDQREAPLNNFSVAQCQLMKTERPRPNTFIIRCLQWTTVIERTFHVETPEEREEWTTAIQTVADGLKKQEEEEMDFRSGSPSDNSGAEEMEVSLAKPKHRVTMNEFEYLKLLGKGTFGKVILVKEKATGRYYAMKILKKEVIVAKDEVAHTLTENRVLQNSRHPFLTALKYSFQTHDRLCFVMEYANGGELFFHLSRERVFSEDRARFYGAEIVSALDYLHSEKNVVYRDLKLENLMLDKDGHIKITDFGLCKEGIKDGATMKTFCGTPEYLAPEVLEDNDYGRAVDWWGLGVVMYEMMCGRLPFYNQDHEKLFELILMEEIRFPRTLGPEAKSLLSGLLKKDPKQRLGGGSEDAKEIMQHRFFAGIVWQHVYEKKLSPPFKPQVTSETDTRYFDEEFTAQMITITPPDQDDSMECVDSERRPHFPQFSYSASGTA", "test": "Western blotting of AKT isoforms in SW620 cells", "assay_type": "cell-based", "details": "Figure S3"}, "AKT [9]": {"system": "AKT", "test": "Western blotting of T-AKT in PANC-1 cells", "assay_type": "cell-based", "details": "24 h"}, "AKT1 [10]": {"biological_target": "T2, AKT1", "test": "Global TMT MS-based quantitative proteomic study in SW620 cells", "assay_type": "cell-based", "details": "1 μM, 18 h, approximately 6433 proteins detected"}, "AKT [11]": {"system": "AKT", "test": "Western blotting of T-AKT in SKMEL 239 cells", "assay_type": "cell-based", "details": "SKMEL 239 cells (BRAF mutant), 1 μM, 24 h"}, "AKT2 [12]": {"biological_target": "T1, AKT2", "test": "Western blotting of AKT isoforms in SW620 cells", "assay_type": "cell-based", "details": "Figure S3"}, "AKT [13]": {"system": "AKT", "test": "Western blotting of T-AKT in SW620 cells", "assay_type": "cell-based", "details": "for effect on AKT protein levels at high concentrations (in words): concentrations up to 10 μM"}, "SW620 cells [14]": {"system": "SW620 cells", "test": "Cell proliferation assay", "assay_type": "cell-based", "details": "5 days, IncuCyte"}, "AKT3": {"biological_target": "AKT3 (Homo sapiens, UniProt Q9Y243)", "sequence (Q9Y243 whole entry)": "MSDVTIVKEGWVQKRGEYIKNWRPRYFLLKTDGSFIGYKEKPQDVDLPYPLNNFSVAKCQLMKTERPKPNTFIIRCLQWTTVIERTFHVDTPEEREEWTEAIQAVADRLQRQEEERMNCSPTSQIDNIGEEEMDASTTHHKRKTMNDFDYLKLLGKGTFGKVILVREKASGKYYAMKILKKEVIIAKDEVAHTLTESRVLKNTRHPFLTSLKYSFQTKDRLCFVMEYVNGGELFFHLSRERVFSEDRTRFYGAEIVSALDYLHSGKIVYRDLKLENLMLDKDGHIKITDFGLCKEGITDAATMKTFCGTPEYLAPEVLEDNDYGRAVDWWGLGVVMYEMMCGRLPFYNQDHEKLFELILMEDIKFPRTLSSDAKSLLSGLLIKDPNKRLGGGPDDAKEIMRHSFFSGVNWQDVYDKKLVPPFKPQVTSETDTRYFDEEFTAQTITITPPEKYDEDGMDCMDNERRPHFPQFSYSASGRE", "test": "AKT activity inhibition assay", "assay_type": "biochemical", "details": "10 μM ATP"}, "AKT1 [15]": {"biological_target": "T2, AKT1", "test": "AKT activity inhibition assay", "assay_type": "biochemical", "details": "10 μM ATP"}, "AKT2 [16]": {"biological_target": "T1, AKT2", "test": "AKT activity inhibition assay", "assay_type": "biochemical", "details": "10 μM ATP"}}, "note": "Entries after “also recorded” stand apart in the source; their conditions may differ.", "data": [{"smiles": "Cc1ncsc1-c1ccc([C@H](C)NC(=O)[C@@H]2C[C@@H](O)CN2C(=O)[C@@H](NC(=O)CCCCCCCCCCNC(=O)CCc2cccc(-c3ccc4nc(-c5cccnc5N)n(-c5ccc(C6(N)CCC6)cc5)c4n3)c2)C(C)(C)C)cc1", "note": "[Compound 62, (2S,4R)-1-((S)-2-(11-(3-(3-(3-(4-(1-Aminocyclobutyl)phenyl)-2-(2-aminopyridin-3-yl)-3H-imidazo[4,5-b]pyridin-5-yl)phenyl)propanamido)undecanamido)-3,3-dimethylbutanoyl)-4-hydroxy-N-((S)-1-(4-(4-methylthiazol-5-yl)phenyl)ethyl)pyrrolidine-2-carboxamide]", "values": [{"measurement": "T-AKT degradation (in words)", "setting": "AKT [1]", "result": "more effective than MS21"}, {"measurement": "P-PRAS40 inhibition (western blot verification for proteomics, in words)", "setting": "P-PRAS40", "result": "inhibited"}, {"measurement": "AKT2 protein level in TMT proteomics (in words)", "setting": "AKT2 [2]", "result": "also reduced"}, {"measurement": "clinical signs during the PK study", "setting": "[3]", "result": "No clinical signs were observed"}, {"measurement": "plasma concentrations", "setting": "[3]; maintained for at least 12 h", "result": "above 100 nM"}, {"measurement": "inhibition of colony formation (in words)", "setting": "SW620 cells [4]", "result": "significantly inhibited colony formation"}, {"measurement": "T-AKT degradation (western blot, in words)", "setting": "AKT [5]", "result": "modestly induced AKT degradation"}, {"measurement": "induction of cell apoptosis / percent cell death (in words)", "setting": "SW620 cells [6]", "result": "most effectively"}, {"measurement": "T-AKT degradation (in words)", "setting": "AKT [7]", "result": "more effective than MS21"}, {"measurement": "AKT1 degradation (western blot, in words)", "setting": "AKT1 [8]", "result": "potently induced"}, {"measurement": "T-AKT degradation (in words)", "setting": "AKT [9]; PANC-1 cells (KRAS mutant), 1 μM", "result": "near-complete AKT degradation"}, {"measurement": "T-AKT degradation (in words)", "setting": "AKT [9]; PANC-1 cells, 100 nM", "result": "complete degradation"}, {"measurement": "T-AKT degradation at high concentrations (in words)", "setting": "AKT [9]; PANC-1 cells, concentrations up to 10 μM", "result": "no “hooker effect” was observed"}, {"measurement": "AKT1 protein level in TMT proteomics (in words)", "setting": "AKT1 [10]", "result": "reduced significantly"}, {"measurement": "proteome-wide degradation selectivity (in words)", "setting": "AKT1 [10]", "result": "generally selective AKT degrader"}, {"measurement": "T-AKT degradation (in words)", "setting": "AKT [11]", "result": "more effective than MS21"}, {"measurement": "AKT2 degradation (western blot, in words)", "setting": "AKT2 [12]", "result": "potently induced"}, {"measurement": "T-AKT degradation (western blot, in words)", "setting": "AKT [13]; SW620 cells (KRAS mutant), Figure S2", "result": "effectively and completely depleted T-AKT; also recorded: much more effective than MS21"}, {"measurement": "T-AKT degradation (in words)", "setting": "AKT [13]; SW620 cells, 30 nM, 24 h", "result": "substantial T-AKT depletion"}, {"measurement": "T-AKT degradation (in words)", "setting": "AKT [13]; SW620 cells, 100 nM, 24 h", "result": "nearly complete AKT degradation"}, {"measurement": "T-AKT level (western blot verification for proteomics, in words)", "setting": "AKT [13]; SW620 cells, 1 μM, 18 h, Figure S4", "result": "significantly reduced"}, {"measurement": "T-AKT degradation in time-course study (in words)", "setting": "AKT [13]; SW620 cells, 1 μM, at 4 h", "result": "Significant AKT degradation"}, {"measurement": "T-AKT degradation in time-course study (in words)", "setting": "AKT [13]; SW620 cells, 1 μM, at 12 h, maintained for at least another 12 h", "result": "Near complete AKT degradation"}, {"measurement": "T-AKT protein level in time-course study (in words)", "setting": "AKT [13]; SW620 cells, 1 μM, up to 24 h", "result": "time-dependently reduced T-AKT protein levels"}, {"measurement": "effect on AKT protein levels at high concentrations (in words)", "setting": "AKT [13]; SW620 cells, 24 h", "result": "no “hooker effect” was observed"}, {"measurement": "DC50", "setting": "AKT [13]; read-out: DC50, T-AKT degradation, SW620 cells, 24 h, western blot", "result": "23 ± 16", "unit": "nM"}]}, {"smiles": "Cc1ncsc1-c1ccc([C@H](C)NC(=O)[C@H]2C[C@H](OCc3ccccc3)CN2C(=O)[C@@H](NC(=O)CCCCCCCCCCNC(=O)CCc2cccc(-c3ccc4nc(-c5cccnc5N)n(-c5ccc(C6(N)CCC6)cc5)c4n3)c2)C(C)(C)C)cc1", "note": "[Compound 64, (2R,4S)-1-((S)-2-(11-(3-(3-(3-(4-(1-Aminocyclobutyl)phenyl)-2-(2-aminopyridin-3-yl)-3H-imidazo[4,5-b]pyridin-5-yl)phenyl)propanamido)undecanamido)-3,3-dimethylbutanoyl)-4-(benzyloxy)-N-((S)-1-(4-(4-methylthiazol-5-yl)phenyl)ethyl)pyrrolidine-2-carboxamide]", "values": [{"measurement": "cell growth inhibition (in words)", "setting": "SW620 cells [14]", "result": "inactive"}, {"measurement": "decrease of AKT3 inhibition potency compared to 62", "setting": "AKT3", "result": 3.6, "unit": "fold"}, {"measurement": "decrease of AKT1 inhibition potency compared to 62", "setting": "AKT1 [15]", "result": 1.5, "unit": "fold"}, {"measurement": "decrease of AKT2 inhibition potency compared to 62", "setting": "AKT2 [16]", "result": 6, "unit": "fold"}, {"measurement": "effect on AKT protein levels at high concentrations (in words)", "setting": "AKT [13]; SW620 cells, 24 h", "result": "no effect"}]}]}
